Molecular target: T1, microsomal h-COX2 (Homo sapiens, UniProt P35354)
T1 construct: made in house; host or cells: baculovirus infected SF9 cells (microsomal preparation)
T1 sequence (P35354 18-604): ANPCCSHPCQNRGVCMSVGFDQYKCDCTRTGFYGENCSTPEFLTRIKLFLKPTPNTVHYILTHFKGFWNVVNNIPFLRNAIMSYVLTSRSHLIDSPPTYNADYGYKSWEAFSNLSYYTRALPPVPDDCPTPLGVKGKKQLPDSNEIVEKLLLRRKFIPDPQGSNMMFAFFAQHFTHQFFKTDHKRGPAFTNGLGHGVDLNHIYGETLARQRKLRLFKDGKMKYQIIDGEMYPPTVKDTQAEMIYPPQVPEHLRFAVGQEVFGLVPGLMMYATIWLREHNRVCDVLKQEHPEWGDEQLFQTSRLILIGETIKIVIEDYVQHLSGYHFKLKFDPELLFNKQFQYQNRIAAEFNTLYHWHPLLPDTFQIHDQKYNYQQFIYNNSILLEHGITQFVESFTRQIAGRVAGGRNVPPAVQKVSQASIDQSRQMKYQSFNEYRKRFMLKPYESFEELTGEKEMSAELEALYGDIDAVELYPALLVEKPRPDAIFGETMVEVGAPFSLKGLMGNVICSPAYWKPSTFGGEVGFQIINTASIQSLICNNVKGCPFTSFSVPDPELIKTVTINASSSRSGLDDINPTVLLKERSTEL
Assay: Microsomal assay: inhibition of microsomal h-COX2 (PGE2 by EIA)
Assay type: biochemical
Conditions: microsomal preparation from baculovirus infected SF9 cells; 1 hour preincubation; 0.1 μM arachidonic acid, 10 minutes; read-out: IC50 values for inhibition of COX-2
Protocol: Inhibitory activity against microsomal h-COX2 was assessed against a microsomal preparation from baculovirus infected SF9 cells. An aliquot of microsomal preparation was thawed slowly on ice and a 1/40,000 dilution prepared from it into the assay buffer (sterile water, degassed with argon containing 100 mM HEPES (pH 7.4), 10 mM EDTA (pH7.4), 1 mM phenol, 1 mM reduced glutathione, 20 mg/ml gelatin and 0.001 mM Hematin). Once diluted the enzyme solution was then sonicated for 5 seconds (Branson sonicator, setting 4, 1 cm tip) to ensure a homogeneous suspension. 155 μl enzyme solution was then added to each well of a 96-well microtitre plate containing either 5 μl test und (40× required test concentration) or 5 μl DMSO for controls. Plates were then mixed and incubated at room temperature for 1 hour. Following the incubation period, 40 μl of 0.5 μM arachidonic acid was added to each well to give a final concentration of 0.1 μM. Plates were then mixed and incubated for exactly 10 minutes (room temperature) prior to addition of 25 μl 1M HCl (hydrochloric acid) to each well to stop the reaction. 25 μl of 1M NaOH (sodium hydroxide) was then added to each well to neutralise the solution prior to determination of PGE2 levels by enzyme immunoassay (EIA).

IC50	SMILES
≤ 500 nM	CS(=O)(=O)c1ccc(-c2ccc3ccn(Cc4ccccc4)c3n2)cc1 [Example 12]
≤ 500 nM	CS(=O)(=O)c1ccc(-c2ccc3ccn(Cc4ccc(Cl)cc4)c3n2)cc1 [Example 18]
≤ 500 nM	CS(=O)(=O)c1ccc(-c2ccc3ccn(Cc4ccncc4)c3n2)cc1 [Example 15]
≤ 500 nM	CS(=O)(=O)c1ccc(-c2ccc3ccn(Cc4ccccn4)c3n2)cc1 [Example 16]
≤ 500 nM	CS(=O)(=O)c1ccc(-c2ccc3ccn(Cc4cccnc4)c3n2)cc1 [Example 14]

More lines, now with the values behind:

SMILES	IC50
CC(C)Cc1cn(CC2CCCCC2)c2nc(-c3ccc(S(C)(=O)=O)cc3)ccc12 [Example 3, 1-(cyclohexanemethyl)-3-(2-methylprop-1-yl)-6-[4-(methylsulfonyl)phenyl]-7-azaindole]	≤ 500 nM
CS(=O)(=O)c1ccc(-c2ccc3ccn(-c4ccc(F)cc4)c3n2)cc1 [Example 13]	≤ 500 nM
CS(=O)(=O)c1ccc(-c2ccc3c(C=O)cn(CC4CCCCC4)c3n2)cc1 [Example 4, 1-(cyclohexanemethyl)-6-[4-(methylsulfonyl)phenyl]-7-azaindole-3-carboxaldehyde]	≤ 500 nM
CS(=O)(=O)c1ccc(-c2ccc3ccn(S(=O)(=O)c4ccccc4)c3n2)cc1 [Example 9]	≤ 500 nM
CCC(CC)Cn1ccc2ccc(-c3ccc(S(C)(=O)=O)cc3)nc21 [Example 10]	≤ 500 nM
CS(=O)(=O)c1ccc(-c2ccc3ccn(-c4ccccc4)c3n2)cc1 [Example 2, 1-Phenyl-6-[4-(methylsulfonyl)phenyl]-7-azaindole]	≤ 500 nM
Cc1cn(CC2CCCCC2)c2nc(-c3ccc(S(C)(=O)=O)cc3)ccc12 [Example 6, 1-{cyclohexanemethyl)-3-methyl-6-[4-(methylsulfonyl)phenyl]-7-azaindole]	≤ 500 nM
CS(=O)(=O)c1ccc(-c2ccc3ccn(CC4CCCCC4)c3n2)cc1 [Example 1, 1-(cyclohexanemethyl)-6-[4-(methylsulfonyl)phenyl]-7-azaindole]	≤ 500 nM

Source: patent publication US20060270880A1, “7-Azaindole derivatives as cox2 inhibitors” (priority 2003, published 2006)
